1 cell line from the supplement of paper PMC10307832 can be followed below.

Holding throughout (assay): relative viability (nuclei count vs DMSO), 5 days (fraction); higher = more cells survive
Compound in the experiment “TGX 221 + Crizotinib”: CC1=CN2C(=O)C=C(N=C2C(=C1)C(C)NC3=CC=CC=C3)N4CCOCC4 [TGX 221] + C[C@@H](Oc1cc(-c2cnn(C3CCNCC3)c2)cnc1N)c1c(Cl)ccc(F)c1Cl [Crizotinib] (partner 1 µM)
In short, it runs like this: (§1)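 Values are medians from duplicate plates. Each reflects relative viability, defined as the nuclei count of treated wells over that of vehicle wells. Lung cancer cell lines in 1536-well plates were pin-tool dosed one day after seeding with one drug alone or with a fixed anchor-drug dose plus five library-drug doses (not always all listed) in √10 steps, then fixed, stained and imaged at 4× after 5 days.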

Compound in experiment [1]: C1=CC=C(C(=C1)C2=CC=C(C=C2)C3=CSC4=C3C(=C(C(=O)N4)C#N)O)O + Nc1ncn([C@H]2C[C@H](O)[C@@H](CO)O2)c(=O)n1 [Decitabine] (partner 2 µM)
The method, boiled down: as §1

Compound in the experiment “TGX 221 + Bortezomib”: CC1=CN2C(=O)C=C(N=C2C(=C1)C(C)NC3=CC=CC=C3)N4CCOCC4 [TGX 221] + CC(C)C[C@H](NC(=O)[C@H](Cc1ccccc1)NC(=O)c1cnccn1)B(O)O [Bortezomib] (partner 0.002 µM)
In short, it runs like this: as §1

Compound in the experiment “TGX 221 + Decitabine”: CC1=CN2C(=O)C=C(N=C2C(=C1)C(C)NC3=CC=CC=C3)N4CCOCC4 [TGX 221] + Nc1ncn([C@H]2C[C@H](O)[C@@H](CO)O2)c(=O)n1 [Decitabine] (partner 2 µM)
The method, boiled down:
as §1

For NCI-H1792, the relative viability with TGX 221 + Crizotinib (first compound 0.08 µM) was 0.883; with TGX 221 + Crizotinib (first compound 0.253 µM) it was 1.08; with TGX 221 + Crizotinib (first compound 0.8 µM), 0.944; with TGX 221 + Crizotinib (first compound 2.53 µM), 0.948; with TGX 221 + Crizotinib (first compound 8 µM), 0.857; in experiment [1] (first compound 0.253 µM) it was 0.715. Further, the relative viability is 0.482 in experiment [1] (first compound 0.8 µM); 0.617 in experiment [1] (first compound 2.53 µM); 0.438 in experiment [1] (first compound 8 µM); 0.89 with TGX 221 + Bortezomib (first compound 0.08 µM); 0.922 with TGX 221 + Bortezomib (first compound 0.253 µM); 0.944 with TGX 221 + Bortezomib (first compound 0.8 µM). Moreover, the relative viability came to 0.904 with TGX 221 + Bortezomib (first compound 2.53 µM); 0.838 in the experiment with TGX 221 + Bortezomib (first compound 8 µM); 0.522 with TGX 221 + Decitabine (first compound 0.08 µM); 0.479 in the experiment with TGX 221 + Decitabine (first compound 0.253 µM); 0.549 in the experiment with TGX 221 + Decitabine (first compound 0.8 µM); 0.454 in the experiment with TGX 221 + Decitabine (first compound 2.53 µM). Moreover, the relative viability with TGX 221 + Decitabine (first compound 8 µM) was determined as 0.362.
